Test results taken from US10034886B2, “GLP-1 receptor modulators” (Celgene International II SÀRL, priority 2014, dated 2018).
Read-outs that look alike come from different tables or passages of the source.

Biological target: T1, GLP-1R (Homo sapiens, UniProt P43220)
T1 construct: host or cells: GLP-1R CRE-bla CHO-K1 cells
Test: EC20 GLP-1(9-36) PAM cAMP assay: dose response of compound in the presence of fixed concentration of GLP-1(9-36)
Type: cell-based
Conditions: GLP-1R CRE-bla CHO-K1 cells, read-out: EC20 GLP-1(9-36) PAM EC50
In short: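 Positive allosteric modulation read as cAMP accumulation: compound titrations (12 points) combined with an EC20 level of GLP-1(9-36) on CHO-K1 GLP-1R CRE-bla cells, IBMX present, 30 min, 37 °C, pH 7.4 buffer. Luminescence converted to cAMP via standards; non-linear fit gave EC50 and Emax.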

[1] = dose response of compound in presence of fixed concentration of GLP-1(9-36)
[2] = compound dose response with fixed concentration of GLP-1(9-36)

T1 sequence (P43220 24-463): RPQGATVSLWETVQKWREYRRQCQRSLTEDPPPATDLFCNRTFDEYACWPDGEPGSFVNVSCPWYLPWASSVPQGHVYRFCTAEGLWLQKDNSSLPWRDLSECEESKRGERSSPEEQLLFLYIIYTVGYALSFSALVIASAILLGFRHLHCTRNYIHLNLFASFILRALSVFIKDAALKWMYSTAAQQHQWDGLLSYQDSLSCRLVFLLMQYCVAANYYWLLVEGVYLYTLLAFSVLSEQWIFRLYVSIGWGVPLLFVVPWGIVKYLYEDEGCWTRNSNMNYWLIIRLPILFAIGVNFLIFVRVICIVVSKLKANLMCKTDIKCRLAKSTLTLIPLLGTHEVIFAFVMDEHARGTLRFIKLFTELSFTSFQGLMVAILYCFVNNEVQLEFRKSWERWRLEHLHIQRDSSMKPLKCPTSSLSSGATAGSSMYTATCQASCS
T1 sequence (P01275 100-127 partner limits assumed): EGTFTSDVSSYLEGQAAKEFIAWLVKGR

Structure (SMILES) | EC50 [1] [nM] | EC50 [2] [nM]
CCCOc1ccc(-c2cnc(-c3ccc(C[C@H](NC(=O)c4ccc(C(C)(C)C)cc4)C(=O)NCCC(=O)O)cc3)nc2)cc1 [Compound 708] | 800 to 2500 | –
CCCCCCCOc1ccc(-c2cnc(-c3ccc(C[C@H](NC(=O)c4ccc(C(C)(C)C)s4)C(=O)N4CC(C(N)=O)C4)cc3)nc2)cc1 [Compound 972] | 5000 to 10000 | –
COc1ccc(-c2cnc(-c3ccc(C[C@H](NC(=O)c4ccc(C(C)(C)C)s4)C(=O)N[C@H](C)C(=O)O)cc3)nc2)c(F)c1OCC(C)C [Compound 1003] | 5000 to 10000 | –
CCCCCCCOc1ccc(-c2cnc(-c3ccc(C[C@H](NC(=O)c4ccc(C(C)(C)C)cc4)C(=O)N4CCC[C@@H](C(=O)O)[C@H]4C)cc3)nc2)cc1 [Compound 583] | 5000 to 10000 | –
C[C@@H](NC(=O)[C@H](Cc1ccc(-c2ncc(-c3ccc(-c4ccccc4)cc3F)cn2)cc1)NC(=O)c1ccc(C(C)(C)C)s1)C(=O)O [Compound 1318] | – | < 800
CCCCCCCOc1ccc(-c2cnc(-c3ccc(C[C@H](NC(=O)c4ccc(C(C)(C)C)cc4)C(=O)NC(C(=O)O)c4cccc(OC)c4)cc3)nc2)cc1 (stereo partly drawn) [Compound 566] | < 800 | –
CC(C)(C)c1ccc(C(=O)N[C@@H](Cc2ccc(-c3ncc(-c4ccc(-c5ccc(C6CCC6)cc5)cc4F)cn3)cc2)C(=O)N2CC(C(=O)O)C2)s1 [Compound 1210] | – | < 800
CCCCCCCc1noc(-c2cnc(-c3ccc(C[C@H](NC(=O)c4ccc(C(C)(C)C)cc4)C(=O)NCCC(=O)O)cc3)nc2)n1 [Compound 754] | 5000 to 10000 | –
CCCCCCCOc1ccc(-c2cnc(-c3ccc(C[C@H](NC(=O)c4ccc(C(C)(C)C)s4)C(=O)NS(=O)(=O)CCOC)cc3)nc2)cc1 [Compound 435] | 800 to 2500 | –
CCCCCCCOc1ccc(-c2cnc(-c3ccc(C[C@H](NC(=O)c4ccc(C(C)(C)C)s4)C(=O)NCC4(C(=O)O)CCNCC4)cc3)nc2)cc1 [Compound 606] | 800 to 2500 | –
CC(C)CCCCOc1ccc(-c2cnc(-c3ccc(C[C@H](NC(=O)c4ccc(C(C)(C)C)cc4)C(=O)NCCC(=O)O)cc3)nc2)cc1 [Compound 472, (S)-3-(2-(4-(tert-butyl)benzamido)-3-(4-(5-(4-((5-methylhexyl)oxy)phenyl)-pyrimidin-2-yl)phenyl)propanamido)propanoic acid] | 800 to 2500 | –
CCCCCCCOc1ccc(-c2cnc(-c3ccc(C[C@H](NC(=O)c4ccc(C(C)(C)C)s4)C(=O)O)cc3)nc2)nc1 [Compound 1062, (S)-2-(5-(tert-butyl)thiophene-2-carboxamido)-3-(4-(5-(5-(heptyloxy)pyridin-2-yl)pyrimidin-2-yl)phenyl)propanoic acid] | 800 to 2500 | –
CCOc1cc(-c2cnc(-c3ccc(C[C@H](NC(=O)c4ccc(C(C)(C)C)s4)C(=O)N[C@H](C)C(=O)O)cc3)nc2)ccc1OC(F)(F)F [Compound 1004] | 800 to 2500 | –
CC[C@H]1CC[C@H](c2ccc(-c3cnc(-c4ccc(C[C@H](NC(=O)c5ccc(S(C)(=O)=O)s5)C(=O)N5CC(C(=O)O)C5)cc4)nc3)cc2)CC1 [Compound 1278] | – | < 800
CCC(C)(C)c1ccc(C(=O)N[C@@H](Cc2ccc(-c3ncc(-c4ccc(OCCCC(C)C)cc4)cn3)cc2)C(=O)N2CC(C(=O)O)C2)cc1 [Compound 1237] | – | 2500 to 5000
CCCCCCCOc1ccc(-c2cnc(-c3ccc(C[C@H](NC(=O)c4ccc(C(C)C)s4)C(=O)NC(C(=O)O)C(O)c4ccccc4)cc3)nc2)cc1 (stereo partly drawn) [Compound 958] | 800 to 2500 | –
CCCCCCCOc1ccc(-c2cnc(-c3ccc(CC(NC(=O)c4ccc(C(C)(C)C)s4)C(=O)N[C@@H](Cc4ccccc4)C(=O)O)cc3)nc2)cc1 (stereo partly drawn) [Compound 415] | < 800 | –
CCCCCCCOc1ccc(-c2cnc(-c3ccc(C[C@H](NC(=O)c4ccc(C(C)(C)C)cc4)C(=O)N4C[C@H](O)C[C@H]4C(=O)O)cc3)nc2)cc1 [Compound 567] | < 800 | –
CCOc1ccc(-c2ccc(-c3cnc(-c4ccc(C[C@H](NC(=O)c5ccc(C(C)(C)C)s5)C(=O)N[C@H](C)C(=O)O)cc4)nc3)cc2)cc1 [Compound 1287] | – | 800 to 2500
C[C@@H](NC(=O)[C@H](Cc1ccc(-c2ncc(C#Cc3ccc(F)cc3)cn2)cc1)NC(=O)c1ccc(C(C)(C)C)s1)C(=O)O [Compound 1275] | – | 800 to 2500
CC[C@H]1CC[C@H](c2ccc(-c3cnc(-c4ccc(C[C@H](NC(=O)c5ccc(C(C)(C)C)s5)C(=O)N[C@@H](CC(N)=O)C(=O)O)cc4)nc3)cc2)CC1 [Compound 1325] | – | < 800
CCCCCCCOc1ccc(-c2cnc(-c3ccc(CC(NC(=O)c4ccc(C(C)(C)C)s4)C(=O)NCCCCC(=O)O)cc3)nc2)cc1 (stereo not drawn) [Compound 459] | 800 to 2500 | –
CCc1ccc(C#Cc2cnc(-c3ccc(C[C@H](NC(=O)c4ccc(C(C)(C)C)s4)C(=O)N[C@H](C)C(=O)O)cc3)nc2)cc1 [Compound 1276] | – | 800 to 2500
CCC[C@H]1CC[C@H](C2CCN(c3cnc(-c4ccc(C[C@H](NC(=O)c5ccc(C(C)(C)C)s5)C(=O)N[C@H](C)C(=O)O)cc4)nc3)CC2)CC1 [Compound 1437] | – | < 800

Structure (SMILES) | EC50 [1] [nM] | EC50 [2] [nM]
CCOCCCCOc1ccc(-c2cnc(-c3ccc(C[C@H](NC(=O)c4ccc(C(C)(C)C)cc4)C(=O)NCCC(=O)O)cc3)nc2)cc1 [Compound 443] | 800 to 2500 | –
CC[C@H]1CC[C@H](c2ccc(-c3cnc(-c4ccc(C[C@H](NC(=O)c5cnc(C(C)(C)C)nc5)C(=O)O)cc4)nc3)cc2)CC1 [Compound 1368] | – | < 800
CCCCCCCOc1ccc(-c2cnc(-c3ccc(C[C@H](NC(=O)c4ccc(C(C)(C)C)s4)C(=O)N4CC(CN)(C(=O)O)C4)cc3)nc2)cc1 [Compound 1280] | – | < 800
COc1ccc(C2CCN(c3cnc(-c4ccc(C[C@H](NC(=O)c5ccc(C(C)(C)C)s5)C(=O)N5CC(C(=O)O)C5)cc4)nc3)CC2)cc1 [Compound 1425] | – | 800 to 2500
C[C@@H](NC(=O)[C@H](Cc1ccc(-c2ncc(-c3cc4ccccc4s3)cn2)cc1)NC(=O)c1ccc(C(C)(C)C)s1)C(=O)O [Compound 1024] | 800 to 2500 | –
CCCCCCCCOc1ccc(-c2cnc(-c3ccc(C[C@H](NC(=O)c4ccc(C(C)(C)C)s4)C(=O)N4CC[C@H](C(=O)O)C4)cc3)nc2)cc1 [Compound 764] | < 800 | –
CCCCCCCOc1ccc(-c2cnc(-c3ccc(C[C@H](NC(=O)c4ccc(C(F)(F)F)cc4)C(=O)N[C@H](C)C(=O)O)cc3)nc2)cc1 [Compound 822] | 2500 to 5000 | –
CCCCCCCOc1ccc(-c2cnc(-c3ccc(CC(NC(=O)c4ccc(C(C)(C)C)s4)C(=O)Nc4ccc(C(=O)O)cc4)cc3)nc2)cc1 (stereo not drawn) [Compound 442] | 800 to 2500 | –
CCC[C@H]1CC[C@H](C2CCN(c3cnc(-c4ccc(C[C@H](NC(=O)c5ccc(C(C)(C)C)s5)C(=O)N5CC(F)(C(=O)O)C5)cc4)nc3)CC2)CC1 [Compound 1451] | – | 800 to 2500
CC(C)(C)CCCOc1ccc(-c2cnc(-c3ccc(C[C@H](NC(=O)c4ccc(C(C)(C)C)s4)C(=O)NC(C(=O)O)C(O)c4ccccc4)cc3)nc2)cc1 (stereo partly drawn) [Compound 937] | 800 to 2500 | –
CCCCC1CCC(C2CCN(c3cnc(-c4ccc(C[C@H](NC(=O)c5ccc(C(C)(C)C)s5)C(=O)N5CC(C(=O)O)C5)cc4)nc3)CC2)CC1 (stereo partly drawn) [Compound 1428] | – | < 800
CCCCCCc1nc(-c2cnc(-c3ccc(C[C@H](NC(=O)c4ccc(C(C)(C)C)cc4)C(=O)O)cc3)nc2)no1 [Compound 248, (S)-2-(4-(tert-butyl)benzamido)-3-(4-(5-(5-hexyl-1,2,4-oxadiazol-3-yl)pyrimidin-2-yl)phenyl)propanoic acid] | 2500 to 5000 | –
CCCCCCCOc1ccc(-c2cnc(-c3ccc(C[C@H](NC(=O)c4ccc(C(C)(C)C)cc4)C(=O)N[C@H](CC)C(=O)O)cc3)nc2)cc1 [Compound 498] | 800 to 2500 | –
CCC[C@H]1CC[C@H](C2CCN(c3cnc(-c4ccc(C[C@H](NC(=O)c5ccc(C(C)(C)C)s5)C(=O)N[C@H](CC)C(=O)O)cc4)nc3)CC2)CC1 [Compound 1443] | – | < 800
CCCCCCCOc1ccc(-c2cnc(-c3ccc(C[C@H](NC(=O)c4ccc(C(C)(C)C)cc4)C(=O)N[C@@H](CC(=O)NCCO)C(=O)O)cc3)nc2)cc1 [Compound 508] | < 800 | –
CC[C@H]1CC[C@H](c2ccc(-c3cnc(-c4ccc(C[C@H](NC(=O)c5ccc(OC(C)C)cc5)C(=O)N5CC(C(=O)O)C5)cc4)nc3)cc2)CC1 [Compound 1160] | < 800 | –
Cc1cccc(/C=C/c2cnc(-c3ccc(C[C@H](NC(=O)c4ccc(C(C)(C)C)s4)C(=O)N[C@H](C)C(=O)O)cc3)nc2)c1 [Compound 1254] | – | 800 to 2500
CCCCCCCOc1ccc(-c2cnc(-c3ccc(C[C@H](NC(=O)c4ccc(S(C)(=O)=O)cc4)C(=O)N[C@H](C)C(=O)O)cc3)nc2)cc1 [Compound 816] | 800 to 2500 | –
CCCCCCCOc1ccc(-c2cnc(-c3ccc(C[C@H](NC(=O)c4ccc(C(C)(C)C)s4)C(=O)NCC(O)CO)cc3)nc2)cc1 (stereo partly drawn) [Compound 462] | 5000 to 10000 | –
CC[C@H]1CC[C@H](c2ccc(-c3cnc(-c4ccc(C[C@H](NC(=O)c5ccc(C(C)(C)C)s5)C(=O)O)cc4)nc3)c(F)c2)CC1 [Compound 1363] | – | < 800
C[C@@H](NC(=O)[C@H](Cc1ccc(-c2ncc(/C=C/c3ccccc3C(F)(F)F)cn2)cc1)NC(=O)c1ccc(C(C)(C)C)s1)C(=O)O [Compound 1260] | – | 800 to 2500
CCCCCCCOc1ccc(-c2cnc(-c3ccc(C[C@H](NC(=O)c4ccc(C(C)(C)C)cc4)C(=O)N[C@@H](CN)C(=O)O)cc3)nc2)cc1 [Compound 452] | 2500 to 5000 | –
CCCCOc1cc(-c2cnc(-c3ccc(C[C@H](NC(=O)c4ccc(C(C)(C)C)s4)C(=O)N[C@H](C)C(=O)O)cc3)nc2)cc(Cl)c1OC(C)C [Compound 1039] | 800 to 2500 | –
CC(C)(C)c1ccc(C(=O)N[C@@H](Cc2ccc(-c3ncc(-c4nc(-c5cccc(Oc6ccccc6)c5)no4)cn3)cc2)C(=O)NCCC(=O)O)cc1 [Compound 757] | 800 to 2500 | –
